Measured values reported in US8119614B2, “Substitution derivatives of N6-benzyladenosine, methods of their preparation, their use for preparation of drugs, cosmetic preparations and growth regulators, pharmaceutical preparations, cosmetic preparations and growth regulators containing these compounds” (Ustav Experimentalni Botaniky Akademie Ved Ceske Republiky, priority 2002, dated 2012).
pIC50: −log10 of the molar value.

Tests used:
[1] = system: Human T-lymphoblastic leukemia cell line CEM; experiment: In vitro cytotoxic activity, Calcein AM assay, CEM; format: cell-based; details: 72 hours
Summary of the method: (§1)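 Continuous 72 h drug exposure of cultured cells, followed by 1 h Calcein AM staining to count metabolically active cells; survival relative to untreated wells gave GI50.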

[2] = system: Amaranthus caudatus cotyledon/hypocotyl explants; experiment: Amaranthus bioassay (betacyanin content); format: in vivo; details: for Concentration with highest activity: 48 h dark; for Activity (%) [10^−5 mol · l^−1 BAP = 100%]: at concentration with highest activity
Summary of the method: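 Surface-sterilised Amaranthus caudatus var. atropurpurea seeds were germinated 72 h at 25° C. in darkness, then de-rooted. Cotyledon/hypocotyl explants (20 per dish) were incubated under green safe light on filter paper with 1 ml medium of 10 μmol NA2HPO4-KH2PO4, pH 6.8, 5 μmol tyrosine and cytokinin (10^-8M to 10^-4M) for 48 h at 25° C. in darkness. Betacyanin was extracted in […] acetic acid and measured by absorbance at 537 nm and 620 nm.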

[3] = system: breast carcinoma cell lines MCF-7; experiment: In vitro cytotoxic activity, Calcein AM assay, MCF7; format: cell-based, human; details: 72 hours, read-out: IC 50 MCF7
Summary of the method: as §1

mouse fibroblasts NIH3T3 = experiment: In vitro cytotoxic activity, Calcein AM assay, NIH-3T3; format: cell-based; details: 72 hours, read-out: IC 50 NIH-3T3
Summary of the method: as §1

promyelocytic HL-60 = experiment: In vitro cytotoxic activity, Calcein AM assay, HL60; format: cell-based, human; details: 72 hours, read-out: IC 50 HL60
Summary of the method: as §1

[4] = system: Triticum aestivum cv. Hereward; experiment: Senescence inhibition on winter wheat leaf segments (chlorophyll retention); format: in vivo; details: for Concentration with highest activity: chlorophyll retention in excised wheat leaf tips, 96 h dark; for Activity (%) [10^−4 mol · l^−1 BAP = 100%]: chlorophyll retention, at concentration with highest activity
Summary of the method: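 Tip segments of the first leaf from 7-day wheat seedlings held, basal ends down, in cytokinin solutions (10^−8M to 10^−4M) for 96 h at 25° C in darkness. Chlorophyll extracted in 80% ethanol at 80° C, read at 665 nm; activity at best concentration given relative to 10^−4 M BAP (100%), means of five replicates.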

[5] = system: tobacco callus Nicotiana tabacum L. cv. Wisconsin 38; experiment: Growth of cytokinin-dependent tobacco callus; format: cell-based; details: for Activity (%) [10^−5 mol · l^−1 BAP = 100%]: callus growth, at concentration with highest activity; for Concentration with highest activity: fresh callus weight after four weeks
Experimental: Cytokinin-dependent tobacco callus Nicotiana tabacum L. cv. Wisconsin 38 was maintained at 25° C. in darkness on modified Murashige-Skoog medium, containing per 1 liter: 4 μmol nicotinic acid, 2.4 μmol pyridoxine hydrochloride, 1.2 μmol thiamine, 26.6 μmol glycine, 1.37 μmol glutamine, 1.8 μmol myo-inositol, 30 g of sucrose, 8 g of agar, 5.37 μmol α-naphtylacetic acid (NAA) and 0.5 μmol benzylaminopurine (BAP). Subcultivation was carried out every three weeks. Fourteen days before the bioassay, the callus tissue was transferred to the media without 6-benzylaminopurine (BAP). Biological activity was determined from the increase in fresh callus weight after four weeks of cultivation. Five replicates were prepared for each cytokinin concentration and the entire test was repeated twice. From the obtained data, the concentration with highest activity was selected for each compound tested. Relative activity of the compound at this concentration was calculated (Tab. 6). […] The cytokinins to be tested were dissolved in dimethylsulfoxide (DMSO) and the solution brought up to 10^−3M with distilled water. This stock was further diluted in the respective media used for the biotest to concentrations ranging from 10^−8M to 10^−4M.

[6] = system: human diploid fibroblasts (HCA cells); experiment: Inhibition of senescence of mammal cells: β-galactosidase staining of senescent cells; format: cell-based; details: for Senescent cells (%) HCA25: passage 25; for Senescent cells (%) HCA45: passage 45; for Senescent cells (%) HCA80: passage 80
Experimental: In this example, human diploid fibroblasts (HCA cells with different levels of passage: passage 25—labelling HCA25; passage 45—labelling HCA45; passage 80—labelling HCA80) were used for studying β-galactosidase activity. Medium used for cells cultivation was removed, cells were washed twice with PBS and fixed in 2-3 ml of fixation agent consisting of 2% of formaldehyde and 0.2% of flutaraldehyde in PBS. Cells were incubated at room temperature for 5 min and subsequently washed twice with PBS. Cells were then incubated at 37° C. (without CO2) for 1 to 16 hours in 2-3 ml of solution comprising potassium ferricyanide (5 mM), potassium ferrocyanide (5 mM), MgCl2 (2 mM), X-gal (5-bromo-4-chloro-3-indolyl-β-D-galactopyranoside) (1 mg/ml) in citrate/phosphate buffer, pH 6.0. […] In this experiment only senescent cells were labelled due to the effect of β-galactosidase on the substrate.

[7] = system: human erythroleukaemia K562; experiment: In vitro cytotoxic activity, Calcein AM assay, K-562; format: cell-based; details: 72 hours, read-out: IC 50 K-562
Summary of the method: as §1

HOS = experiment: In vitro cytotoxic activity, Calcein AM assay, HOS; format: cell-based; details: 72 hours
[8] = system: human malignant melanoma cells G361; experiment: In vitro cytotoxic activity, Calcein AM assay, G-361; format: cell-based; details: 72 hours, read-out: IC 50 G-361
Source text: One of the parameters used, as the basis for cytotoxicity assays, is the metabolic activity of viable cells. For example, a microtiter assay, which uses the Calcein AM, is now widely used to quantitate cell proliferation and cytotoxicity. For instance, this assay is used in drug screening programs and in chemosensitivity testing. Because only metabolically active cells cleave Calcein AM, these assays detect viable cells exclusively. The quantity of reduced Calcein AM corresponds to the number of vital cells in the culture.
Human T-lymphoblastic leukemia cell line CEM; promyelocytic HL-60 and monocytic U937 leukemias; breast carcinoma cell lines MCF-7; cervical carcinoma cells HELA; mouse fibroblasts NIH3T3; human erythroleukaemia K562 and human malignant melanoma cells G361 were used for routine screening of compounds. The cells were maintained in Nunc/Corning 80 cm^2 plastic tissue culture flasks and cultured in cell culture medium (DMEM with 5 g/l glucose, 2 mM glutamine, 100 U/ml penicillin, 100 μg/ml streptomycin, 10% fetal calf serum and sodium bicarbonate).
The cell suspensions that were prepared and diluted according to the particular cell type and the expected target cell density (10^4 cells per well based on cell growth characteristics) were added by pipette (80 μl) into 96/well microtiter plates. Inoculates were allowed a pre-incubation period of 24 hours at 37° C. and 5% CO2 for stabilisation. Four-fold dilutions of the intended test concentration were added at time zero in 20 μl aliquots to the microtiter plate wells. Usually, test compound was evaluated at six 4-fold dilutions. In routine testing, the highest well concentration was 166.7 μM, but it can be the matter of change dependent on the agent. All drug concentrations were examined in duplicates. Incubations of cells with the test compounds lasted for 72 hours at 37° C., in 5% CO2 atmosphere and 100% humidity. At the end of incubation period, the cells were assayed by using the Calcein AM. Ten microliters of the stock solution were pipetted into each well and incubated further for 1 hours. Fluorescence (FD) was measured with the Labsystem FIA Reader Fluoroscan Ascent (UK). The tumour cell survival (GI50) was calculated using the following equitation: GI50=(FDdrug exposed well/mean FDcontrol wells)×100%. The GI50 value, the drug concentration lethal to 50% of the tumour cells, was calculated from the obtained dose response curves (FIG. 3).

Row | Structure (SMILES) | pIC50 [1] | Concentration with highest activity [2] | Activity (%) [10^−5 mol · l^−1 BAP = 100%] [2] [%] | pIC50 [3] | pIC50 (mouse fibroblasts NIH3T3) | pIC50 (promyelocytic HL-60) | Concentration with highest activity [4] | Activity (%) [10^−4 mol · l^−1 BAP = 100%] [4] [%] | Activity (%) [10^−5 mol · l^−1 BAP = 100%] [5] [%] | Concentration with highest activity [5] | Senescent cells (%) HCA25 [6] [%] | Senescent cells (%) HCA45 [6] [%] | Senescent cells (%) HCA80 [6] [%] | pIC50 [7] | pIC50 (HOS) | pIC50 [8]
1 | COc1cccc(CNc2ncnc3c2ncn3[C@@H]2O[C@H](CO)[C@@H](O)[C@H]2O)c1OC [2,3-dimethoxybenzylamino, 6-(2,3-dimethoxybenzylamino)purine riboside] | < 3.78 | 10^−4 mol · l^−1 | 21 ± 7 | < 3.78 | < 3.78 | 3.96 | 10^−4 mol · l^−1 | 106 ± 17 | 5 ± 2 | 10^−6 mol · l^−1 | 4 | 5 | 18 | < 3.78 | < 3.78 | –
2 | Nc1cc(CNc2ncnc3c2ncn3[C@@H]2O[C@H](CO)[C@@H](O)[C@H]2O)ccc1Cl [3-amino-4-chlorobenzylamino, 6-(3-amino-4-chlorobenzylamino)purine riboside] | – | – | – | – | – | – | – | – | – | – | 4 | 6 | 22 | – | – | –
3 | OC[C@H]1O[C@@H](n2cnc3c(Nc4cccc(Cl)c4)ncnc32)[C@H](O)[C@@H]1O [3-chloroanilino] | – | – | – | – | – | – | – | – | – | – | 4 | 4 | 27 | – | – | –
4 | COc1ccc(CNc2ncnc3c2ncn3[C@@H]2O[C@H](CO)[C@@H](O)[C@H]2O)cc1 [4-methoxybenzylamino, 6-(4-methoxybenzylamino)purine riboside] | < 3.78 | 10^−4 mol · l^−1 | 17 ± 8 | < 3.78 | < 3.78 | < 3.78 | 10^−4 mol · l^−1 | 110 ± 9 | 2 ± 2 | 10^−6 mol · l^−1 | – | – | – | < 3.78 | < 3.78 | 3.94
5 | c1coc(CNc2ncnc3[nH]cnc23)c1 [Kinetin, reference compound] | – | – | – | – | – | – | – | – | – | – | 3 | 5 | 25 | – | – | –
6 | OC[C@H]1O[C@@H](n2cnc3c(NCc4ccc(O)cc4)nc(Cl)nc32)[C@H](O)[C@@H]1O [R2 = Cl, 4-hydroxybenzylamino] | 4.40 | – | – | < 3.78 | < 3.78 | 5.02 | – | – | – | – | – | – | – | < 3.78 | < 3.78 | < 3.78
7 | COc1ccc(CNc2nc(Cl)nc3c2ncn3[C@@H]2O[C@H](CO)[C@@H](O)[C@H]2O)cc1 [R2 = Cl, 4-methoxyxybenzylamino] | < 3.78 | – | – | < 3.78 | < 3.78 | < 3.78 | – | – | – | – | – | – | – | < 3.78 | < 3.78 | 3.98
